Here are results for 42 molecules from patent US20240150377A1, “MODULATORS OF CYSTIC FIBROSIS TRANSMEMBRANE CONDUCTANCE REGULATOR” (VERTEX PHARMACEUTICALS INCORPORATED, priority 2020, published 2024).

This experiment deals with T1, CFTR (Homo sapiens, UniProt P13569, DEL508-508).
T1 construct: endogenous in cells; host or cells: primary human bronchial epithelial cells from CF subjects (F508del/MF-HBE), differentiated at air-liquid interface
Put plainly: HBE assay: Ussing chamber assay of CFTR-mediated short-circuit currents. The format is cell-based. The settings on record: for Emax: read-out: HBE Max activity (%); for activation at 10 µM: read-out: HBE Activity at 10 μM (%). In short, it runs like this:
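CFTR-mediated Isc (μA/cm²) equals the peak response to apical 20 μM forskolin minus the residual after a 20 μM each BPO/GlyH-101/CFTR inhibitor 172 cocktail, recorded in Ussing chambers at Vhold 0 mV, 37 °C, pH 7.4, with 30 μM apical amiloride. Cells were F508del/MF HBE cultures preincubated 18-24 h with corrector (concentration range or 10 μM) plus 1 μM ivacaftor in 20% human serum.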

Where two headings read alike, the source gives them in different places. Where only a bound is given, the exact number is not on record here.

T1 sequence (P13569 with tags, fused parts or gaps DEL508-508): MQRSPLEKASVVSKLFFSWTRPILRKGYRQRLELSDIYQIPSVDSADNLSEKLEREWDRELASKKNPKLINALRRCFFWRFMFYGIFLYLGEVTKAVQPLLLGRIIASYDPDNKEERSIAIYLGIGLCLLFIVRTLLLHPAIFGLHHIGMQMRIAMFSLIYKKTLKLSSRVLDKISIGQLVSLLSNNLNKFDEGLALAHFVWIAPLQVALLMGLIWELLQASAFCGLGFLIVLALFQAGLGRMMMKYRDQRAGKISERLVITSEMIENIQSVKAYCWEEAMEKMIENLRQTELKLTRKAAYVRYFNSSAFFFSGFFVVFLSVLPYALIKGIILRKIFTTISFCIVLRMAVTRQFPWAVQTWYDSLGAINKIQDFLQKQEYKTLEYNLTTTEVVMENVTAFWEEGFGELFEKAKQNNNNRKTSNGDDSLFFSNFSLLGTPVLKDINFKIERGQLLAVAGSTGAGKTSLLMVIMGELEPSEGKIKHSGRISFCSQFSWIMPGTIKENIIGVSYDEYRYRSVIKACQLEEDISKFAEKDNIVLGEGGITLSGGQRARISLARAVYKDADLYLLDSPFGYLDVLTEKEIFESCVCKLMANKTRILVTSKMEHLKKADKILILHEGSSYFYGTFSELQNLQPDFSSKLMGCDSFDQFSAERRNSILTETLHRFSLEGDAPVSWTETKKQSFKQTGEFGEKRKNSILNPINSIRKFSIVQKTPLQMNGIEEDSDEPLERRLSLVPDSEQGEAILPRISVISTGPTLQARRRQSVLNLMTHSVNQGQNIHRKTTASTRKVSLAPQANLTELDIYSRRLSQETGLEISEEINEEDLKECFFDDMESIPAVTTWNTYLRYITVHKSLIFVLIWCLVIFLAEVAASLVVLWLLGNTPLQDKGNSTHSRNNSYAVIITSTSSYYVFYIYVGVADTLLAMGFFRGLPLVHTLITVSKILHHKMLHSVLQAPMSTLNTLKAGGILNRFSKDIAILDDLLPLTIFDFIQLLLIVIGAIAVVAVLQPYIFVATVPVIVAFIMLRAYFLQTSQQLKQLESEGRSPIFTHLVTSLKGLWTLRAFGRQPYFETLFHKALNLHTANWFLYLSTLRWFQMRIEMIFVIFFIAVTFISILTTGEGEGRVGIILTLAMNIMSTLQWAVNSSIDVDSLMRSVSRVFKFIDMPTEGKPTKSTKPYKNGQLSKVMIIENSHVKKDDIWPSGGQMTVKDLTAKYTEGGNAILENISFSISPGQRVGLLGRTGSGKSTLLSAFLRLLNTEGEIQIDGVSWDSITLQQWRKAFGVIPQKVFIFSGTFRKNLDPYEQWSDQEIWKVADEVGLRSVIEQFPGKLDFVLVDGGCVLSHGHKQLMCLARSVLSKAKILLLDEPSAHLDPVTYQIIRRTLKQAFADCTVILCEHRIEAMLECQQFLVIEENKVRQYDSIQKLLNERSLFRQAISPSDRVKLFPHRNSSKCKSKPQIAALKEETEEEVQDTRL

In the case of `CC[C@H](C)[C@@H]1COc2cc(-c3c(C)cccc3C)nc(n2)NS(=O)(=O)c2cccc(c2)C(=O)N1Cc1ncc(OC(C)C)cn1` [Compound 1471], where the note is “HBE assay, read-out: HBE EC50”, the EC50 (commonly the midpoint of the concentration-response curve) is less than 1 µM. The Emax (HBE assay) was greater than 60%.

On to `CC[C@H](C)[C@@H]1COc2cc(-c3c(C)cccc3C)nc(n2)NS(=O)(=O)c2cccc(c2)C(=O)N1Cc1ncc(OC2CCC2)cn1` [Compound 1472], for which the activation at 10 µM (HBE assay, 10 μM) was greater than 60%. Moreover, the EC50 (HBE assay, read-out: HBE EC50) is less than 1 µM. The Emax (HBE assay) is greater than 60%. `CC[C@@H](C)[C@@H]1COc2cc(-c3c(C)cccc3C)nc(n2)NS(=O)(=O)c2cccc(c2)C(=O)N1Cc1ncc(OC(C)C)cn1` [Compound 1473]: the EC50 (HBE assay, read-out: HBE EC50) is less than 1 µM. Under “HBE assay”, the Emax is greater than 60%. For `CC[C@@H](C)[C@@H]1COc2cc(-c3c(C)cccc3C)nc(n2)NS(=O)(=O)c2cccc(c2)C(=O)N1Cc1ncc(OC2CCC2)cn1` [Compound 1474], in that order: less than 1 µM and greater than 60%. Turning to `Cc1cccc(C)c1-c1cc2nc(n1)NS(=O)(=O)c1cccc(c1)C(=O)N(Cc1ccnc(N3CCC[C@H]3C(C)C)n1)[C@H](CC(C)(C)C)CO2` [Compound 1475], the 50% effective concentration (EC50) (HBE assay, read-out: HBE EC50) was less than 1 µM. In addition, where the note is “HBE assay”, the Emax was greater than 60%. Regarding `Cc1cccc(C)c1-c1cc2nc(n1)NS(=O)(=O)c1cccc(c1)C(=O)N(Cc1ncc(N3CCC(C)(C)C3)cn1)[C@H](CC1CCC1)CO2` [Compound 1477], the EC50 (HBE assay, read-out: HBE EC50) is less than 1 µM. The Emax (HBE assay) is greater than 60%.

For the molecule `Cc1cccc(C)c1-c1cc2nc(n1)NS(=O)(=O)c1cccc(c1)C(=O)N(Cc1ncc(OC3CC4(CC4)C3)cn1)[C@H](CC1CC1)CO2` [Compound 1478], for the setting “HBE assay, read-out: HBE EC50”, the EC50 was less than 1 µM. Moreover, the Emax (HBE assay) is greater than 60%. As for `Cc1cccc(C)c1-c1cc2nc(n1)NS(=O)(=O)c1cccc(c1)C(=O)N(Cc1ncc(N3CCC(F)(F)C3)cn1)[C@H](CC1CCC1)CO2` [Compound 1479], the half-maximal effective concentration (EC50) (HBE assay, read-out: HBE EC50) was less than 1 µM. The Emax (HBE assay) was greater than 60%.

Consider `Cc1cccc(C)c1-c1cc2nc(n1)NS(=O)(=O)c1cccc(c1)C(=O)N(Cc1ncc(N3C[C@@H](F)[C@@H](F)C3)cn1)[C@H](CC(C)(C)C)CO2` [Compound 1481], for which the EC50 (HBE assay, read-out: HBE EC50) is less than 1 µM. Where the note is “HBE assay”, the Emax is greater than 60%. For `CCOc1cnc(CN2C(=O)c3cccc(c3)S(=O)(=O)Nc3nc(cc(-c4c(C)cccc4C)n3)OC[C@H]2CC2CC2)nc1` [Compound 1482], in that order: less than 1 µM and greater than 60%. For `COC(C)(C)CNc1cncc(CN2C(=O)c3cccc(c3)S(=O)(=O)Nc3nc(cc(-c4c(C)cccc4C)n3)OC[C@H]2CC(C)(C)C)n1` [Compound 1483], in that order: less than 1 µM and greater than 60%. Take `COCC1(CNc2cncc(CN3C(=O)c4cccc(c4)S(=O)(=O)Nc4nc(cc(-c5c(C)cccc5C)n4)OC[C@H]3CC(C)(C)C)n2)CC1` [Compound 1484]: the activation at 10 µM (HBE assay, 10 μM) was greater than 60%. Regarding `Cc1cccc(C)c1-c1cc2nc(n1)NS(=O)(=O)c1cccc(c1)C(=O)N(Cc1ncc(OC3CCC3)cn1)[C@H](CCC(C)(C)C)CO2` [Compound 1486], the activation at 10 µM (HBE assay, 10 μM) was greater than 60%.

Turning to `CCOc1cnc(CN2C(=O)c3cccc(c3)S(=O)(=O)Nc3nc(cc(-c4c(C)cccc4C)n3)OC[C@H]2CC2CCC2)nc1` [Compound 1487], the EC50 (HBE assay, read-out: HBE EC50) was less than 1 µM. Moreover, the Emax (HBE assay) is greater than 60%.

On to `CCOc1cnc(CN2C(=O)c3cccc(c3)S(=O)(=O)Nc3nc(cc(-c4c(C)cccc4C)n3)OC[C@H]2CCC(C)(C)C)nc1` [Compound 1488], for which the concentration for a half-maximal effect (EC50) (HBE assay, read-out: HBE EC50) was less than 1 µM. Also, the Emax (HBE assay) was greater than 60%. For `CCOc1cnc(CN2C(=O)c3cccc(c3)S(=O)(=O)Nc3nc(cc(-c4c(C)cccc4C)n3)OC[C@H]2CC(C)(C)C(F)(F)F)nc1` [Compound 1489], in that order: less than 1 µM and greater than 60%. The matching figures for `CCOc1cnc(CN2C(=O)c3cccc(c3)S(=O)(=O)Nc3nc(cc(-c4c(C)cccc4C)n3)OC[C@H]2CC2(C(F)(F)F)CC2)nc1` [Compound 1490]: less than 1 µM and greater than 60%.

As for `COC(C)(C)CN(C)c1cncc(CN2C(=O)c3cccc(c3)S(=O)(=O)Nc3nc(cc(-c4c(C)cccc4C)n3)OC[C@H]2CC(C)(C)C)n1` [Compound 1491], under “HBE assay, read-out: HBE EC50”, the 50% effective concentration (EC50) is less than 1 µM. For the setting “HBE assay”, the Emax is greater than 60%. The matching figures for `Cc1cccc(C)c1-c1cc2nc(n1)NS(=O)(=O)c1cccc(c1)C(=O)N(Cc1cncc(N3CCC[C@H]3COC(C)C)n1)[C@H](CC(C)(C)C)CO2` [Compound 1494]: less than 1 µM and greater than 60%. Turning to `Cc1cccc(C)c1-c1cc2nc(n1)NS(=O)(=O)c1cccc(c1)C(=O)N(Cc1cccc(N3CCC[C@H]3C3CC3)n1)[C@H](CC(C)(C)C)CO2` [Compound 1497], the Emax was greater than 60%. Also, under “HBE EC50 (μM), HBE assay”, the EC50 was less than 1 µM.

For `Cc1cccc(C)c1-c1cc2nc(n1)NS(=O)(=O)c1cccc(c1)C(=O)N(Cc1ncc(N3CC(F)C3)cn1)[C@H](CC(C)(C)C)CO2` [Compound 1498], where the note is “HBE assay, 10 μM”, the activation at 10 µM was greater than 60%. Turning to `Cc1cccc(C)c1-c1cc2nc(n1)NS(=O)(=O)c1cccc(c1)C(=O)N(Cc1cncc(N3CCC[C@H]3C(C)C)n1)[C@H](CC1CC1)CO2` [Compound 1499], under “HBE assay, 10 μM”, the activation at 10 µM was greater than 60%. For the same molecule, the EC50 (HBE assay, read-out: HBE EC50) is less than 1 µM. Further, the Emax (HBE assay) was greater than 60%.

For `Cc1cccc(C)c1-c1cc2nc(n1)NS(=O)(=O)c1cccc(c1)C(=O)N(Cc1ncc(N3CC(F)(F)C(F)(F)C3)cn1)[C@H](CC(C)(C)C)CO2` [Compound 1500], the activation at 10 µM (HBE assay, 10 μM) was greater than 60%. Same read-out and setting: for `Cc1cccc(C)c1-c1cc2nc(n1)NS(=O)(=O)c1cccc(c1)C(=O)N(Cc1cccc(N3CCC[C@H]3C3CC3)n1)[C@H](CC1CC1)CO2` [Compound 1501] the value was greater than 60%. As to `Cc1cccc(C)c1-c1cc2nc(n1)NS(=O)(=O)c1cccc(c1)C(=O)N(Cc1cncc(N3CCC[C@H]3C3CC3)n1)[C@H](CC1CC1)CO2` [Compound 1502], the activation at 10 µM is greater than 60% and the Emax was greater than 60%. The concentration giving a half-maximal response (EC50) (HBE EC50 (μM), HBE assay) is less than 1 µM.

In the case of `Cc1cccc(C)c1-c1cc2nc(n1)NS(=O)(=O)c1cccc(c1)C(=O)N(Cc1ncc(N3CC(C)(F)C3)cn1)[C@H](CC(C)(C)C)CO2` [Compound 1503], for the setting “HBE assay, 10 μM”, the activation at 10 µM is greater than 60%. Further, where the note is “HBE assay, read-out: HBE EC50”, the concentration for a half-maximal effect (EC50) was less than 1 µM. Also, the Emax (HBE assay) is greater than 60%. Turning to `Cc1cccc(C)c1-c1cc2nc(n1)NS(=O)(=O)c1cccc(c1)C(=O)N(Cc1ncc(N3CCC4(CC4)C3)cn1)[C@H](CC(C)(C)C)CO2` [Compound 1504], for the setting “HBE assay, 10 μM”, the activation at 10 µM is greater than 60%. With `Cc1cccc(C)c1-c1cc2nc(n1)NS(=O)(=O)c1cccc(c1)C(=O)N(Cc1ncc(N3CC(C)(C)C3)cn1)[C@H](CC1CC1)CO2` [Compound 1505], the activation at 10 µM (HBE assay, 10 μM) was greater than 60%. The EC50 (HBE assay, read-out: HBE EC50) was less than 1 µM. Moreover, where the note is “HBE assay”, the Emax was greater than 60%. `COCCN(c1cccc(CN2C(=O)c3cccc(c3)S(=O)(=O)Nc3nc(cc(-c4c(C)cccc4C)n3)OC[C@H]2CC(C)(C)F)n1)C(C)C` [Compound 1508]: where the note is “HBE assay, 10 μM”, the activation at 10 µM was greater than 60%. Still for that read-out and setting: then `Cc1cccc(C)c1-c1cc2nc(n1)NS(=O)(=O)c1cccc(c1)C(=O)N(Cc1ncc(OC3CCC3)cn1)[C@H](CC(C)(C)F)CO2` [Compound 1509], with greater than 60%; and `COC[C@@]1(C)CCCN1c1cccc(CN2C(=O)c3cccc(c3)S(=O)(=O)Nc3nc(cc(-c4c(C)cccc4C)n3)OC[C@H]2CC(C)(C)C)n1` [Compound 1510], with greater than 60%.

Take `COC[C@]1(C)CCCN1c1cccc(CN2C(=O)c3cccc(c3)S(=O)(=O)Nc3nc(cc(-c4c(C)cccc4C)n3)OC[C@H]2CC(C)(C)C)n1` [Compound 1511]: the activation at 10 µM (HBE assay, 10 μM) was greater than 60%. The same measure, in the same setting: then `CC(=O)Nc1cnc(CN2C(=O)c3cccc(c3)S(=O)(=O)Nc3nc(cc(-c4c(C)cccc4C)n3)OC[C@H]2CC(C)(C)C)nc1` [Compound 1513], with greater than 60%; and `COC(=O)Nc1cnc(CN2C(=O)c3cccc(c3)S(=O)(=O)Nc3nc(cc(-c4c(C)cccc4C)n3)OC[C@H]2CC(C)(C)C)nc1` [Compound 1514], with greater than 60%. In the case of `Cc1cccc(C)c1-c1cc2nc(n1)NS(=O)(=O)c1cccc(c1)C(=O)N(Cc1ncc(NC(=O)OC(C)C)cn1)[C@H](CC(C)(C)C)CO2` [Compound 1515], the activation at 10 µM (HBE assay, 10 μM) is greater than 60%. On to `CC(=O)N(C)c1cnc(CN2C(=O)c3cccc(c3)S(=O)(=O)Nc3nc(cc(-c4c(C)cccc4C)n3)OC[C@H]2CC(C)(C)C)nc1` [Compound 1516], for which the activation at 10 µM (HBE assay, 10 μM) is greater than 60%. Still for that read-out and setting: for `CCCOc1cnc(CN2C(=O)c3cccc(c3)S(=O)(=O)Nc3nc(cc(-c4c(C)cccc4C)n3)OC[C@H]2CC(C)(C)C)nc1` [Compound 1521] the value was greater than 60%; for `CCOc1cnc(CN2C(=O)c3cccc(c3)S(=O)(=O)Nc3nc(cc(-c4c(C)cccc4C)n3)OC[C@H]2CC2(C)CC2)nc1` [Compound 1524], greater than 60%; for `Cc1cccc(C)c1-c1cc2nc(n1)NS(=O)(=O)c1cccc(c1)C(=O)N(Cc1ncc(N3CC(C)(C)C3)cn1)[C@H](CCC(C)(C)C)CO2` [Compound 1525], greater than 60%.

Consider `COCC(COC)N(C)c1cncc(CN2C(=O)c3cccc(c3)S(=O)(=O)Nc3nc(cc(-c4c(C)cccc4C)n3)OC[C@H]2CC(C)(C)C)n1` [Compound 1531], for which the activation at 10 µM (HBE assay, 10 μM) is greater than 60%. For the molecule `Cc1cccc(C)c1-c1cc2nc(n1)NS(=O)(=O)c1cccc(c1)C(=O)N(Cc1cncc(N3CCCC[C@H]3C3CC3)n1)[C@H](CC(C)(C)C)CO2` [Compound 1532], the activation at 10 µM was greater than 60%.

Consider `Cc1cccc(C)c1-c1cc2nc(n1)NS(=O)(=O)c1cccc(c1)C(=O)N(Cc1cncc(N3CCCC[C@@H]3C3CC3)n1)[C@H](CC(C)(C)C)CO2` [Compound 1533], for which the activation at 10 µM was greater than 60%.
